Values of other authors, collected in patent US9221747B2, “Method of making fatty acid N-acylalkanolamines” (Iowa State University Research Foundation, Inc., priority 2012, dated 2015).

Conditions: at −20° C.

Row | solubility in methanol [g/100 g methanol] | SMILES
1 | 4.02 | CCCCCCCC/C=C\CCCCCCCC(=O)O [oleic acid]
2 | 233 | CCCCC/C=C\C/C=C\CCCCCCCC(=O)O [linoleic acid]
